The SangsterLogP compilation

Compound | logP
COc1cccc(C=CC(=O)C2c3cccc(O)c3C(=O)c3c(O)cccc32)c1 | 4.68
COc1ccc(C=C2c3cccc(O)c3C(=O)c3c(O)cccc32)cc1OC | 5.05
O=C1c2c(O)cccc2C(=Cc2cc(O)c(O)c(O)c2)c2cccc(O)c21 | 3.32
O=C1c2c(O)cccc2C(=Cc2ccc(O)cc2)c2cccc(O)c21 | 4.52
N#Cc1ccc(C=C2c3cccc(O)c3C(=O)c3c(O)cccc32)cc1 | 4.58
O=C1c2c(O)cccc2C(C(=O)Cc2ccc(OCc3ccccc3)cc2)c2cccc(O)c21 | 5.01
Cc1ccc(C=C2c3cccc(O)c3C(=O)c3c(O)cccc32)cc1 | 5.83
O=C1c2c(O)cccc2C(C(=O)CCc2ccccc2)c2cccc(O)c21 | 4.63
O=C1c2c(O)cccc2C(C(=O)/C=C/c2ccc([N+](=O)[O-])cc2)c2cccc(O)c21 | 4.23
O=C1c2c(O)cccc2C(C(=O)Cc2ccc(O)c(O)c2)c2cccc(O)c21 | 3
COc1ccc(CCC(=O)C2c3cccc(O)c3C(=O)c3c(O)cccc32)cc1 | 4.72
CC(C)(C)c1cc(CC(=O)C2c3cccc(O)c3C(=O)c3c(O)cccc32)cc(C(C)(C)C)c1O | 5.33
O=C1c2c(O)cccc2C(C(=O)Cc2ccc(O)cc2)c2cccc(O)c21 | 3.38
O=C1c2c(O)cccc2C(C(=O)Cc2ccc([N+](=O)[O-])cc2)c2cccc(O)c21 | 3.96
O=C1c2c(O)cccc2C(=CCCc2ccccc2)c2cccc(O)c21 | 5.67
O=C1c2c(O)cccc2C(=Cc2ccc(C(F)(F)F)cc2)c2cccc(O)c21 | 5.48
COc1ccc(CC(=O)C2c3cccc(O)c3C(=O)c3c(O)cccc32)cc1 | 4.2
O=C1c2c(O)cccc2C(C(=O)CCc2ccc(OCc3ccccc3)cc2)c2cccc(O)c21 | 5.63
O=C1c2c(O)cccc2C(C(=O)Cc2cc(OCc3ccccc3)c(OCc3ccccc3)c(OCc3ccccc3)c2)c2cccc(O)c21 | 6.11
O=C1c2c(O)cccc2C(C(=O)Cc2cc(O)c(O)c(O)c2)c2cccc(O)c21 | 2.61
O=C1c2c(O)cccc2C(C(=O)CCCc2ccccc2)c2cccc(O)c21 | 4.74
O=C1c2c(O)cccc2C(C(=O)CCc2ccc(O)cc2)c2cccc(O)c21 | 3.73
COC(=O)c1ccc(C=C2c3cccc(O)c3C(=O)c3c(O)cccc32)cc1 | 5.35
COc1ccc(C=C2c3cccc(O)c3C(=O)c3c(O)cccc32)cc1 | 5.53
O=C1c2c(O)cccc2C(=Cc2ccc([N+](=O)[O-])cc2)c2cccc(O)c21 | 4.96
O=C1c2c(O)cccc2C(C(=O)Cc2ccccc2)c2cccc(O)c21 | 4.24
O=C(O)c1ccc(C=C2c3cccc(O)c3C(=O)c3c(O)cccc32)cc1 | 4.4
COc1ccc(CCC(=O)C2c3cccc(O)c3C(=O)c3c(O)cccc32)cc1OC | 4.21
O=C1c2c(O)cccc2C(C(=O)/C=C/c2ccccc2)c2cccc(O)c21 | 4.6
O=C1c2c(O)cccc2C(C(=O)Cc2ccc(OCc3ccccc3)c(OCc3ccccc3)c2)c2cccc(O)c21 | 5.43
